Compound	melting point
COc1ccc(C)c(Nc2c(C#N)cnc3c2C=C2N=C(NCCN4CCOCC4)N=C2C3)c1	148 to 150 °C
COc1cccc([C@H]2O[C@H](CC(=O)Nc3cc(OC(C)C)c4oc(C(=O)O)cc4c3)C(=O)N(CC(C)(C)CO)c3ccc(Cl)cc32)c1OC	189 to 190 °C
OCc1ccc(C2=NOC(c3cc(Cl)cc(Cl)c3)(C(F)(F)F)C2)cc1Cl (configuration not stated)	32 to 35 °C
CC(=O)N[C@@H](C)COc1ccc2nc(-c3cc(F)c(OCC4CC4)c(F)c3)oc2c1F	146 to 147 °C
C=C1C=C(Oc2cc(C(=O)O)ccc2OC)C1(F)F	163 to 165 °C
O=C(CCCl)Nc1ccc(F)c(F)c1	76 °C
C=CCNc1nc(NCCCCC)c2scc(C)c2n1	64 to 65 °C
CCCCCCCCCCCCCCCCCCOc1cc(OCCCCC(=O)OC)cc(N(CC(=O)O)CC(=O)O)c1	91 to 94 °C
O=C(Nc1sc2c(c1C(=O)O)CCOC2)c1nn[nH]n1	> 250 °C
NC(=O)N1CC(Oc2ccc(Cl)cc2)C1	187 to 188 °C
CCOP(=O)(OCC)C(c1ccccc1)N(CCCl)C(N)=O (configuration not stated)	82 °C
CCOP(=O)(/C=C/c1ccc(C(=O)OC)cc1)OCC	60 to 65 °C
CCC(OC)C1(OC)OC12CO2 (configuration not stated)	68 to 70 °C
CCCC(C)(COS(N)(=O)=O)COS(N)(=O)=O	92 to 94 °C
Cc1ccc(Cn2ncn(-c3nc(C)c(C(=O)NCc4csc(C(C)C)n4)s3)c2=O)cc1	151 to 153 °C
COc1cc(/C=C/c2ccc(C(C)C)cc2)cc(OC)c1OC	74 to 75 °C
CCOC(=O)C1=NNC(C)=C(C(=O)OCC)C1c1cccc([N+](=O)[O-])c1 (configuration not stated)	117 °C
CC1CC(C)CC2(C1)OC(N)=NC2=O (configuration not stated)	276 to 281 °C
CN1CC=C(c2c[nH]c3ccc(NC(=O)c4ccc(Cl)cc4)cc23)CC1	224 to 226 °C
CCOC(=O)c1nc2n(n1)-c1ccc(Cl)cc1C(c1ccccc1)=NC2	137 to 138 °C
CCCc1ccc(O)c(NC(=O)C(=O)OCC)c1	155 to 160 °C
COc1cc(C(=O)C(C)C)ccc1O	86 to 87 °C
COC(=O)c1ccc2[nH]c(=O)n(CCCCN3CC=C(c4ccccc4)CC3)c(=O)c2c1	138 °C
CC(=O)c1ccnnc1	66.5 to 67.5 °C
CSC(Oc1cc2cc(Br)cnc2cc1F)C(=O)NC(C)(C)C (configuration not stated)	144 to 145 °C

Compound	melting point
CC(C)(C)OC(=O)N1CCC(Oc2cncc(Cl)n2)CC1	86 to 87 °C
CCOC(=O)c1cc([N+](=O)[O-])c(C)nc1C(=O)OCC	90 to 91.5 °C
CCOC(=O)C(CC)c1ccc(N[C@@H](CCC(N)=O)C(=O)O)cc1 (some centres not stated)	157 °C
CCOC(=O)Cn1cnc(-c2cc(OC)c(OC)c(OC)c2)c1-c1ccc(C(F)(F)F)cc1	129 to 134 °C
C=CC1(O)CN2CCC1CC2 (configuration not stated)	76 to 80 °C
CC1(C)OC(=O)Nc2ncc(-c3cccc(Cl)c3)cc21	214 to 215 °C
COc1cc(C2CCN(CCF)CC2)ccc1Nc1ncc2ccc(-c3ccccc3N(C)S(C)(=O)=O)n2n1	90 to 97 °C
CSc1ccc(CC(=O)C(=O)O)cc1	165 to 167 °C
CCCCCCCCC1C=CC(/C=C/c2ccc(C(=O)O)o2)=C2N=C3CCCCC3=C21 (configuration not stated)	128 to 131 °C
OCc1c(F)c(Cl)c(F)c(Cl)c1F	67 to 68 °C
CCOC(=O)c1nc(-c2cccnc2)[nH]c1N=NN(C)C	125 °C
COc1ccc(C=Cc2nc3c([nH]2)c(=O)n(C)c(=O)n3C)cc1	> 320 °C
CNC(=O)c1ccncc1I	132 to 133 °C
CCOC(=O)c1cc(NC(=O)C(Cc2ccc(Cl)c(Cl)c2)NC(=O)OC(C)(C)C)c[nH]1 (configuration not stated)	175 to 185 °C
COCCNC(=O)C1=C(C(=O)Nc2cc(OC3CCCC3)c(Cl)cc2F)CCCC1	151 °C
CC(C)c1nc(CN)n(C)c1Sc1cccc([N+](=O)[O-])c1	77 to 78 °C
Cc1cc(C)c2c(c1O)C(N)C(C1CCCCC1)C2 (configuration not stated)	125 to 126 °C
COc1ccc(C2(C)C(=O)Nc3cc(Cl)cc(Cl)c3C2=O)cc1 (configuration not stated)	210 to 212 °C
C/C(=C(\C#N)C(=S)/N=C/N(C)C)N1CCCN(c2ccc(C)c(F)c2)CC1	254 to 256 °C
CC(C)(C)C(=O)C(CC(=O)c1ccc(Cl)cc1)n1cncn1 (configuration not stated)	116 to 119 °C
COc1ccc(-c2cc(C(N)(C(F)(F)F)C(F)(F)F)sc2-c2ccc(OC)cc2)cc1	87 to 90 °C
Cc1nc(-n2cnn(CCO)c2=O)sc1C(=O)NCc1cccnc1	201 to 202 °C
CS(=O)c1nnc(-c2ccc3occ(-c4cccc(OC(F)(F)F)c4)c3c2)o1 (configuration not stated)	98 to 99 °C
O=C(NCCCn1ccnc1)Nc1ccc(Cl)cc1	123 to 125 °C

The next lines start with the values.

melting point	Compound
88 to 90 °C	CCOCc1cc2cccc(OC)c2o/c1=N\c1ccccc1
109 to 110 °C	CCC1(CCCCN2CCN(c3ccc(OC)cc3)CC2)C(=O)Nc2ccccc21 (configuration not stated)
160 to 162 °C	O=S(=O)(Cc1ccccc1)c1c(Cl)nc(Cl)nc1Cl
188 to 191 °C	CC(=O)c1c(O)ccc2[nH]ncc12
190 to 196 °C	Oc1ccc(C2N(c3ccccc3)CCN2c2ccccc2)c2cccnc12
88.4 to 90.5 °C	COC(=O)Cc1ccc2c(c1)N(C)Cc1ccccc1C2=O
215 to 216 °C	O=C(Nc1noc2ccccc12)N1CCN(c2nc(-c3ccccc3)no2)CC1
172 to 173 °C	CCc1noc(-c2cn(-c3ccc(Oc4ccccc4)cc3)cn2)n1
73 to 74 °C	CCCCCCCCCCCCCCOc1ccc(OCc2ccccc2)c(C(=O)O)c1
143 to 146 °C	N#Cc1ccccc1N1CCN(CNC(=O)c2cccc(Cl)c2)CC1
65 to 66 °C	COC(=O)c1cc(Br)cc([N+](=O)[O-])c1SCc1ccccc1
214 to 215 °C	Cc1cc(NS(=O)(=O)c2cccs2)c2[nH]c(C(=O)NCCSC(c3ccccc3)(c3ccccc3)c3ccccc3)cc2c1
184 to 185 °C	CC(C)(C(=O)OCC(=O)c1ccccc1)n1c(=O)[nH]c2cc3ccccc3cc2c1=O
> 300 °C	OCc1cnc2cc(Br)ccc2c1O
194 to 196 °C	O=C1c2c(-c3ccccc3)c3ccccc3c(=O)n2CCN1Cc1cc(C(F)(F)F)cc(C(F)(F)F)c1
180 to 186 °C	Cc1ccc(F)cc1C(=O)Nc1ccc(C(=O)N2Cc3ccccc3Oc3ccccc32)cn1
236 °C	CS(=O)(=O)c1ccc(-c2oc(C(=O)O)cc(=O)c2-c2ccc(Cl)cc2)cc1
131 to 133 °C	O=C(Cc1ccc([N+](=O)[O-])cc1)c1ccc([N+](=O)[O-])cc1
255 to 257 °C	O=C(O)c1cc([N+](=O)[O-])cc2ccccc12
188 to 190 °C	CNc1nc(-c2cccc(-c3cnc4c(C)cccc4c3)c2)c2cc(OC)c(OC)cc2n1
230 °C	COC(=O)c1ccc2c(c1)c1cc(-c3ccc(C=O)cc3)c(=O)n(C)c1n2C
148 to 150 °C	Nc1nc2ccccc2c2c1ncn2CCOCC#Cc1cccs1
172 to 173 °C	C=Cc1ccc(C(=O)Oc2ccc(NS(C)(=O)=O)cc2)cc1
142 °C	O=C(CC(=O)c1ccccc1Cl)Nc1ccccc1
130 to 131 °C	CCCCN(Cc1c(O)ccc2ccccc12)Cc1c(O)ccc2ccccc12
163 °C	COc1ccc(N2C(=O)[C@@H](OC(C)=O)[C@H]2c2ccccc2)cc1 (relative stereo)
117 to 119 °C	CCOC(=O)c1c(C)nc2ccc(NCCCN3CCC(OC(c4ccccc4)c4ccccc4)CC3)nn12

melting point	Compound
40 to 70 °C	CN1C=CCC(C(=O)NCCc2c[nH]c3ccccc23)=C1
176 to 177 °C	COc1cc(O)c(Cl)c2cc(-c3ccc(O)cc3)oc12
72 to 74 °C	CC1SCCCNc2ccccc21 (configuration not stated)
263 °C	CC(=O)Nc1ccc(OC(C)=O)c(C(=O)Nc2cccc3[nH]ccc23)c1
138 to 139 °C	N#Cc1c(-c2ccccc2)nn2ccccc12
280 to 287 °C	CC(C)c1ccc2nc3ccc(C(=O)O)cn3c(=O)c2c1
151 to 152 °C	CC(C)(CCCOc1ccccc1)C(=O)O
124 to 125 °C	CS(=O)(=O)c1ccc(C2=C(c3ccccc3)C(=O)C2(Cl)Cl)cc1
278 to 280 °C	Cn1c2ccc(Cl)cc2c2c(CO)nn(-c3ccccc3)c(=O)c21
266 to 268 °C	NC1=NC2=NN(c3ccco3)NC2=C2N=CN(Cc3ccc(F)cc3)N12
162 to 163 °C	Fc1ccc2ncc3ncn(-c4ccccc4F)c3c2c1
243 °C	O=c1[nH]c2cccnc2n1-c1ccc2c(c1)COC2
160 to 163 °C	Cc1c(-c2ccccc2)oc2c(S(=O)(=O)CCCCl)cccc2c1=O
184 to 185 °C	CN1C(=O)CCc2cccc(N3CCN(CCCCOc4ccc5c(n4)NC(=O)CCC5)CC3)c21
90 to 92 °C	CC1(c2ccccc2)CC(=O)N(c2ccncc2)C1=O (configuration not stated)
224 to 245 °C	O=Cc1c2ccccc2c(C=O)c2ccccc12
133 °C	c1ccc2c(c1)[nH]c1cccc(OCC3CO3)c12 (configuration not stated)
116 to 118 °C	COC(=O)OC1C(OCc2ccccc2)C(COCc2ccccc2)OC(C)(OCc2ccccc2)C1NC(C)=O (configuration not stated)
120 to 123 °C	O=C(CC1(c2ccccc2)CCCCC1)C(=O)Nc1ccc2c(c1)COC2=O
176 to 177 °C	Cc1c(Cl)cccc1N1CCN(CCc2nn(Cc3c[nH]cn3)c3cc4c(cc23)OCO4)CC1
76 to 77 °C	CCN(C)c1cc(OC)c(C(=O)NC2CCN(Cc3ccccc3)C2)cc1Cl (configuration not stated)
252 °C	O=Cc1ccc(-c2ccc3ncnc(Nc4ccc(OCc5cccc(F)c5)c(Cl)c4)c3c2)s1
145 to 147 °C	Clc1ccc2sc(=NCCc3c[nH]c4ccccc34)sc2c1
52 to 55 °C	COC(=O)Cc1ccc(OCCNC(=O)C2Cc3ccccc3N2S(=O)(=O)c2ccc(-c3cc(C(F)(F)F)ccc3F)cc2)cc1 (configuration not stated)
261 to 263 °C	O=C(O)c1cn(-c2ccc(F)cc2)c2c(F)c(F)c(F)cc2c1=O
103 to 104 °C	Cc1cc(C)n(-c2nc(-c3ccc(Cl)cc3)c(CCCOc3ccccc3C)o2)n1
